{"source": "patent US8227428B2", "about": "“Anti-infammatory macrolide” (Glaxo Group Limited, priority 2009, dated 2012)", "key": {"[1]": {"assay": "Stability in buffer solutions pH 2 to pH 8 at 25° C.", "format": "physicochemical", "method": "(§1) Stability in buffer solutions pH 2 to pH 8 at 25° C., and in bio-relevant media (SGF pH 1.6, Fasted SIF pH 6.5 and Fed SIF pH 5.0) at 37° C., during 24 hours is monitored. The samples are analysed by LC/MS.\nBuffer Solutions and Physiologically Relevant Media Used in Stability Assay:\nLC Conditions: Instrument HP1100\nColumn: Waters XBridge C18, 2.1×50 mm, 3.5 μm\nGuard column: Waters XBridge C18, 2.1×10 mm, 3.5 μm\n• A) 0.1% HCOOH/H2O • B) 0.1% HCOOH/CH3CN Gradient Timetable: […]\n(§2) Flow: 0.3 mL/min Column temp.: 25° C. Sample temp.: 25° C. (for stability assay in buffer solutions) • 37° C. (for stability assay in bio-relevant media) Injector volume: 3 μL (without injection program) MS Conditions: Instrument HP MS API-ES, positive ion mode Mass Range: 150-1500 Fragmentor: 100 Gain: 1.0 Treshold: 150 Step size: 0.20 Gas Temperature: 350° C. Drying Gas Flow: 13 L/min Nebulizer Pressure: 35 psig Capillary Voltage Positive 4000 V • Negative 4000 V Sample Preparation: a) For Stability Assay in Buffer Solutions\nCompounds are dissolved in CH3CN to produce a 1 mg/mL stock solution. The stock solution is diluted to a concentration of 0.2 mg/mL (1 mL solution in 4 mL buffer) with appropriate buffer to produce a working solution.\nEach solution at each pH is then dispatched into vials that are sealed and stored at room temperature in order to be analyzed at the proper time point. Before analysis, pH values of prepared sample solutions are checked and adjusted if neccessary."}, "[2]": {"assay": "Stability in bio-relevant media (SGF, Fasted SIF, Fed SIF) at 37° C.", "format": "physicochemical", "method": "as §1\nSGF (Simulated Gastric Fluid) pH 1.6\nFasted SIF (Simulated Intestinal Fluid) pH 6.5\nFed SIF (Simulated Intestinal Fluid) pH 5.0\nas §2\nb) For Stability Assay in Bio-Relevat Media\nb1) For SGF Media pH 1.6 Testing:\nCompounds are dissolved in SGF media pH 1.6 to give 0.2 mg/mL solution in case of compounds 1 and 2, and to give 0.1 mg/mL solution in case of compound 3. Solutions are then stored in a water bath at 37° C. and removed at the proper time point for LC/MS analysis. Before analysis, pH values of prepared sample solutions are checked and adjusted if necessary.\nb2) For Fasted SIF Media pH 6.5 Testing:\n(§3) Compounds are dissolved in Fasted SIF media pH 6.5 to give 2 mg/mL solution. Solutions are then dispatched into vials that are stored in a water bath at 37° C. and removed at the proper time point and diluted 10 times with CH3CN for LC/MS analysis. Before analysis, pH values of prepared sample solutions are checked and adjusted if necessary.\nb3) For Fed SIF Media pH 5.0 Testing:\nas §3, with “Fed” for “Fasted”, “5.0” for “6.5”, “40” for “10”"}}, "data": [{"smiles": "CC[C@H]1OC(=O)[C@H](C)[C@@H](O[C@H]2C[C@@](C)(OC)[C@@H](OC(=O)CCN(CC)CC)[C@H](C)O2)[C@H](C)[C@@H](O[C@@H]2O[C@H](C)C[C@H](NC)[C@H]2O)[C@](C)(OC)C[C@@H](C)C(=O)N[C@H](C)[C@@H](O)[C@]1(C)O", "note": "[Example 2, 3′-N-Demethyl-4″-O-(3-diethylaminopropionoyl)-6-O-methyl-9a-aza-9a-homoerythromycin A]", "values": [{"measurement": "Percentage (Area %) of the compound observed in buffers", "setting": "[1]; pH 6, 25° C., 20 h", "value": 98.2, "unit": "Area %"}, {"measurement": "Percentage (Area %) of the compound observed in buffers", "setting": "[1]; pH 6, 25° C., 22 h", "value": 98.2, "unit": "Area %"}, {"measurement": "Percentage (Area %) of the compound observed in buffers", "setting": "[1]; pH 6, 25° C., 24 h", "value": 98.1, "unit": "Area %"}, {"measurement": "Percentage (Area %) of the compound observed in buffers", "setting": "[1]; pH 6, 25° C., Initial", "value": 100, "unit": "Area %"}, {"measurement": "Percentage (Area %) of the compound observed in buffers", "setting": "[1]; pH 7, 25° C., 2 h", "value": 97.8, "unit": "Area %"}, {"measurement": "Percentage (Area %) of the compound observed in buffers", "setting": "[1]; pH 7, 25° C., 4 h", "value": 93.4, "unit": "Area %"}, {"measurement": "Percentage (Area %) of the compound observed in buffers", "setting": "[1]; pH 7, 25° C., 6 h", "value": 89.8, "unit": "Area %"}, {"measurement": "Percentage (Area %) of the compound observed in buffers", "setting": "[1]; pH 7, 25° C., 8 h", "value": 89.3, "unit": "Area %"}, {"measurement": "Percentage (Area %) of the compound observed in buffers", "setting": "[1]; pH 7, 25° C., 12 h", "value": 85.1, "unit": "Area %"}, {"measurement": "Percentage (Area %) of the compound observed in buffers", "setting": "[1]; pH 7, 25° C., 14 h", "value": 84.3, "unit": "Area %"}, {"measurement": "Percentage (Area %) of the compound observed in buffers", "setting": "[1]; pH 7, 25° C., 18 h", "value": 84.0, "unit": "Area %"}, {"measurement": "Percentage (Area %) of the compound observed in buffers", "setting": "[1]; pH 7, 25° C., 20 h", "value": 81.3, "unit": "Area %"}, {"measurement": "Percentage (Area %) of the compound observed in buffers", "setting": "[1]; pH 7, 25° C., 22 h", "value": 79.9, "unit": "Area %"}, {"measurement": "Percentage (Area %) of the compound observed in buffers", "setting": "[1]; pH 7, 25° C., 24 h", "value": 78.4, "unit": "Area %"}, {"measurement": "Percentage (Area %) of the compound observed in buffers", "setting": "[1]; pH 7, 25° C., Initial", "value": 100, "unit": "Area %"}, {"measurement": "Percentage (Area %) of the compound observed in buffers", "setting": "[1]; pH 8, 25° C., 2 h", "value": 92.0, "unit": "Area %"}, {"measurement": "Percentage (Area %) of the compound observed in buffers", "setting": "[1]; pH 8, 25° C., 4 h", "value": 81.7, "unit": "Area %"}, {"measurement": "Percentage (Area %) of the compound observed in buffers", "setting": "[1]; pH 8, 25° C., 6 h", "value": 77.7, "unit": "Area %"}, {"measurement": "Percentage (Area %) of the compound observed in buffers", "setting": "[1]; pH 8, 25° C., 8 h", "value": 71.7, "unit": "Area %"}, {"measurement": "Percentage (Area %) of the compound observed in buffers", "setting": "[1]; pH 8, 25° C., 12 h", "value": 63.4, "unit": "Area %"}, {"measurement": "Percentage (Area %) of the compound observed in buffers", "setting": "[1]; pH 8, 25° C., 14 h", "value": 60.2, "unit": "Area %"}, {"measurement": "Percentage (Area %) of the compound observed in buffers", "setting": "[1]; pH 8, 25° C., 18 h", "value": 54.2, "unit": "Area %"}, {"measurement": "Percentage (Area %) of the compound observed in buffers", "setting": "[1]; pH 8, 25° C., 20 h", "value": 51.1, "unit": "Area %"}, {"measurement": "Percentage (Area %) of the compound observed in buffers", "setting": "[1]; pH 8, 25° C., 22 h", "value": 47.1, "unit": "Area %"}, {"measurement": "Percentage (Area %) of the compound observed in buffers", "setting": "[1]; pH 8, 25° C., 24 h", "value": 44.6, "unit": "Area %"}, {"measurement": "Percentage (Area %) of the compound observed in buffers", "setting": "[1]; pH 8, 25° C., Initial", "value": 100, "unit": "Area %"}, {"measurement": "stability in bio-relevant media SGF pH 1.6 and Fasted SIF pH 6.5", "setting": "[2]; 37° C., during 24 hours", "value": "Example 2 showed instability in bio-relevant media SGF pH 1.6 and in Fasted SIF pH 6.5."}, {"measurement": "Percentage (Area %) of the compound observed in Bio-relevant media", "setting": "[2]; Fasted SIF pH 6.5, 37° C., 1 h", "value": 99.6, "unit": "Area %"}, {"measurement": "Percentage (Area %) of the compound observed in Bio-relevant media", "setting": "[2]; Fasted SIF pH 6.5, 37° C., 2 h", "value": 98.0, "unit": "Area %"}, {"measurement": "Percentage (Area %) of the compound observed in Bio-relevant media", "setting": "[2]; Fasted SIF pH 6.5, 37° C., 3 h", "value": 93.0, "unit": "Area %"}, {"measurement": "Percentage (Area %) of the compound observed in Bio-relevant media", "setting": "[2]; Fasted SIF pH 6.5, 37° C., 4 h", "value": 89.7, "unit": "Area %"}, {"measurement": "Percentage (Area %) of the compound observed in Bio-relevant media", "setting": "[2]; Fasted SIF pH 6.5, 37° C., 5 h", "value": 86.7, "unit": "Area %"}, {"measurement": "Percentage (Area %) of the compound observed in Bio-relevant media", "setting": "[2]; Fasted SIF pH 6.5, 37° C., Initial", "value": 100, "unit": "Area %"}, {"measurement": "Percentage (Area %) of the compound observed in Bio-relevant media", "setting": "[2]; Fed SIF pH 5.0, 37° C., 1 h", "value": 99.7, "unit": "Area %"}, {"measurement": "Percentage (Area %) of the compound observed in Bio-relevant media", "setting": "[2]; Fed SIF pH 5.0, 37° C., 2 h", "value": 99.6, "unit": "Area %"}, {"measurement": "Percentage (Area %) of the compound observed in Bio-relevant media", "setting": "[2]; Fed SIF pH 5.0, 37° C., 3 h", "value": 99.4, "unit": "Area %"}, {"measurement": "Percentage (Area %) of the compound observed in Bio-relevant media", "setting": "[2]; Fed SIF pH 5.0, 37° C., 4 h", "value": 98.7, "unit": "Area %"}, {"measurement": "Percentage (Area %) of the compound observed in Bio-relevant media", "setting": "[2]; Fed SIF pH 5.0, 37° C., 5 h", "value": 98.6, "unit": "Area %"}, {"measurement": "Percentage (Area %) of the compound observed in Bio-relevant media", "setting": "[2]; Fed SIF pH 5.0, 37° C., 24 h", "value": 97.4, "unit": "Area %"}, {"measurement": "Percentage (Area %) of the compound observed in Bio-relevant media", "setting": "[2]; Fed SIF pH 5.0, 37° C., Initial", "value": 100, "unit": "Area %"}, {"measurement": "Percentage (Area %) of the compound observed in Bio-relevant media", "setting": "[2]; SGF pH 1.6, 37° C., 15", "value": 83.9, "unit": "Area %"}, {"measurement": "Percentage (Area %) of the compound observed in Bio-relevant media", "setting": "[2]; SGF pH 1.6, 37° C., 1 h", "value": 99.3, "unit": "Area %"}, {"measurement": "Percentage (Area %) of the compound observed in Bio-relevant media", "setting": "[2]; SGF pH 1.6, 37° C., 2 h", "value": 99.3, "unit": "Area %"}, {"measurement": "Percentage (Area %) of the compound observed in Bio-relevant media", "setting": "[2]; SGF pH 1.6, 37° C., 3 h", "value": 96.6, "unit": "Area %"}, {"measurement": "Percentage (Area %) of the compound observed in Bio-relevant media", "setting": "[2]; SGF pH 1.6, 37° C., 4 h", "value": 92.9, "unit": "Area %"}, {"measurement": "Percentage (Area %) of the compound observed in Bio-relevant media", "setting": "[2]; SGF pH 1.6, 37° C., 5 h", "value": 92.3, "unit": "Area %"}, {"measurement": "Percentage (Area %) of the compound observed in Bio-relevant media", "setting": "[2]; SGF pH 1.6, 37° C., 6 h", "value": 91.1, "unit": "Area %"}, {"measurement": "Percentage (Area %) of the compound observed in Bio-relevant media", "setting": "[2]; SGF pH 1.6, 37° C., 8 h", "value": 90.1, "unit": "Area %"}, {"measurement": "Percentage (Area %) of the compound observed in Bio-relevant media", "setting": "[2]; SGF pH 1.6, 37° C., 10 h", "value": 87.2, "unit": "Area %"}, {"measurement": "Percentage (Area %) of the compound observed in Bio-relevant media", "setting": "[2]; SGF pH 1.6, 37° C., 12 h", "value": 85.4, "unit": "Area %"}, {"measurement": "Percentage (Area %) of the compound observed in Bio-relevant media", "setting": "[2]; SGF pH 1.6, 37° C., 18 h", "value": 82.4, "unit": "Area %"}, {"measurement": "Percentage (Area %) of the compound observed in Bio-relevant media", "setting": "[2]; SGF pH 1.6, 37° C., 21 h", "value": 81.0, "unit": "Area %"}, {"measurement": "Percentage (Area %) of the compound observed in Bio-relevant media", "setting": "[2]; SGF pH 1.6, 37° C., Initial", "value": 100, "unit": "Area %"}]}]}
